Experimental data reported in US20070148660A1, “Treatment of maladaptive substance use with H-ras antagonists” (The Regents of the University of California, priority 2005, published 2007).

Experiments:
NR2A subunits = details: 100 mM ethanol, 15 min, hippocampal slices
Protocol: (§1) Transverse hippocampal slices ([…]) were prepared from 10- to 12-week-old C57BL/6J mice. Slices were allowed to recover for 90 min in artificial cerebrospinal fluid (aCSF) saturated with 95% O2/5% CO2 containing (in mM): 126 NaCl, 1.2 KCl, 1.2 NaH2PO4, 1.2 MgCl2, 2.4 CaCl2, 18 NaHCO3, and 11 glucose. Following recovery, slices were treated with aCSF (control) or ethanol at room temperature, after which the slices were rinsed in cold aCSF, and used either for cross-linking experiments, for Ras activity assay, or for immunoprecipitation. In experiments using Tat-H-Ras DN or the Tat-peptide, the slices were pretreated with either aCSF (control) or 2 μM Tat-H-Ras DN or Tat-peptide for 2 hrs at room temperature, followed by ethanol treatments.
(§2) Chymotrypsin experiments were performed as described previously (22), with minor modifications. Following recovery, slices were treated with aCSF or 0.5 mg/ml chymotrypsin at 32° C. for 5 min. […] The protein concentration was determined using the BCA assay, followed by SDS-PAGE and Western blot analysis.
(§3) Proteins were separated by SDS-PAGE and blotted onto a nitrocellulose membrane. […] Results were quantified by NIH Image 1.61.

NR2B = details: ethanol, hippocampal slices, data not shown
Protocol: as §1, §2, §3

[1] = tested on: NR2A subunit of the NMDAR; experiment: BS3 cross-linking, surface vs internalized NR2A in hippocampal slices; assay type: cell-based, mouse
Protocol: as §1
(§4) Cross-linking was performed as described previously (22), with minor modifications. Following treatment, the slices were placed in cold aCSF in the presence or absence of 2 mg/ml of the cross-linking reagent BS^3 for 45 min at 4° C. while shaking. Slices were then rinsed three times with cold aCSF containing 20 mM Tris (pH 7.6), followed by sonication in cold homogenization buffer (10% SDS, 10 mM EDTA, 100 mM Tris (pH 8.0), and protease and phosphatase inhibitor cocktails). The protein concentration was determined using the BCA assay, followed by SDS-PAGE and Western blot analysis. Data are expressed as ratio of normalized surface expressed or internalized receptors to the total receptor levels.
(§5) Proteins were separated by SDS-PAGE and blotted onto a nitrocellulose membrane. After blocking, the membranes were incubated with the specific primary antibody, followed by horseradish peroxidase-conjugated secondary antibody. Detection was obtained followed by enhanced chemiluminescent reaction (Amersham Biosciences), and processed using the STORM PhosphoImager (Amersham Biosciences). Results were quantified by NIH Image 1.61.

NR1 subunit of the NMDAR = details: 100 mM ethanol, 15 min, hippocampal slices
Protocol: as §1, §4, §5

[2] = tested on: GluR1 subunit of the AMPAR; details: 100 mM ethanol, 15 min, hippocampal slices
Protocol: as §1, §4, §5

NR2B subunit = details: 100 mM ethanol, 15 min, hippocampal slices
Protocol: as §1, §4, §5

[3] = tested on: NR2A-adaptin β2 association; experiment: Co-immunoprecipitation of NR2A and adaptin β2, hippocampal slices; assay type: cell-based, mouse; details: 100 mM ethanol, 15 min
Protocol: as §1
The treated slices were homogenized in ice-cold buffer containing 1% deoxycholate, protease and phosphatase inhibitors and (in mM): 250 sucrose, 20 Tris-HCl (pH 7.5), 2 EDTA and 10 EGTA. 500 μg of the protein was diluted with 1× immunoprecipitation buffer (1% Triton X-100 and (in mM): 150 NaCl, 10 Tris HCl (pH 7.4), 1 EDTA, 1 EGTA and 0.2 sodium orthovanadate) and incubated with 5 μg of the appropriate antibody, followed by an overnight incubation at 4° C. with protein G agarose beads. […]
as §3

NR2A = details: 100 mM ethanol, 15 min, L(-tk) cells NR1+NR2A
Protocol: L(−tk) were cultured on 100 mm plates. When cells reached 75% confluency, they were transfected with 5 μg of PSD95-GFP cDNA using LipofectAMINE PLUS in accordance with the manufacturer's instructions. 24 hrs after transfection, the expression of the NMDAR subunits NR1+NR2A or NR1+NR2B was induced with […] dexamethasone in DMEM containing 10% FBS, and 0.5 mM ketamine as previously described (21). After 3 days of induction, the cross-linking or immunoprecipitation studies were conducted. Homogenates were obtained as described in (17).
as §4, §3

For CCO [ethanol], the “internalization of the NR2A subunits (chymotrypsin)” value (NR2A subunits) was “significantly increased”, the “surface or intracellular levels of NR2B (chymotrypsin)” value (NR2B) was “no effects” and the “change in subcellular localization of NR2A after ethanol washout” value ([1]; 100 mM ethanol 15 min, washed out, 15 min recovery) was “not observed”. For the same compound, the “intracellular level of NR2A” value ([1]; 100 mM ethanol, 15 min, hippocampal slices) was “significant increase”, the “NR2A internalization in Fyn+/+ and Fyn-/- mice” value ([1]; 100 mM ethanol, 15 min, slices from Fyn+/+ and Fyn-/- mice) was “significantly enhanced” and the “internalization of the NR2A subunits in Src+/+ mice” value ([1]; 100 mM ethanol, 15 min, slices from Src+/+ mice) was “significantly increased”. For the same compound, the “NR2A internalization in Src+/- mice upon ethanol” value ([1]; 100 mM ethanol, 15 min, slices from Src+/- mice, NR2A internalized under basal conditions) was “no additional changes”, the “surface expression of the NR2A subunit at lower ethanol concentrations” value ([1]; ethanol as low as 25 mM, 15 min, hippocampal slices) was “reduction” and the “surface expression of the NR1 subunit” value (NR1 subunit of the NMDAR) was “no change”. For the same compound, the “surface expression of the GluR1 subunit” value [2] was “no change”, the “membranal localization of the NR2B subunit” value (NR2B subunit) was “did not alter” and the “association of adaptin β2 with NR2A and vice-versa” value [3] was “significantly increased”. For the same compound, the “internalized pool of NR2A” value (NR2A) was “increase”.
